The values below come from patent US20060122267A1, “Compositions and methods for attenuating mitochondria-mediated cell injury” (priority 2003, published 2006).

Entries after “also recorded” stand apart in the source; their conditions may differ.

The test system of one data set is mitochondrial proteins. The data set can be described thus: Biotin-switch analysis of mitochondrial protein S-nitrosation. The data set is classed as biochemical, rat. The conditions noted are these: for S-nitrosation of entire mitochondrial protein extract, comparison of NO donors: S-nitrosoglutathione 1 mM, DETA-NONOate 2 mM, ONOO- 3 additions of 100 μM, 37° C., 40 minutes. The procedure:
Rat heart mitochondria were isolated using differential centrifugation (Tompkins, et al. (2005) Biochim. Biophys. Acta PMID: 16278076). Protein was determined by the Folin-phenol method (Lowry, et al. (1951) J. Bio. Chem. 193:265-75) against a standard curve constructed using bovine serum albumin. Mitochondrial incubations and all subsequent steps were performed in the dark. One mg of mitochondrial protein was suspended in 1 mL of mitochondrial respiration buffer (Tompkins, et al. (2005) supra) containing respiratory substrates glutamate (5 mM), malate (2.5 mM) and succinate (5 mM). […] Samples were centrifuged (5 minutes, 14,000×g), and supernatants removed. The pellets were then resuspended in 1 mL of respiration buffer, and centrifuged again. Pellets were frozen in liquid N2 for subsequent analysis. For ONOO^− treatments, 4 μL of 25 mM ONOO^− stock (100 μM final concentration) was added the cap of the reaction tube, the cap quickly closed and the tube shaken immediately. The process was then repeated twice at 30 second intervals, for a total of 3 additions. Mitochondria were then pelleted, washed, and frozen as for S-nitrosoglutathione samples. Complex I activity was assayed as the rotenone-sensitive oxidation of NADH, at 340 nm in the presence of coenzyme Q1 (Borutaite, et al. (2000) supra). Complex IV was assayed by monitoring the cyanide-sensitive first-order oxidation of reduced cytochrome c, at 550 nm according to established methods (Cleeter, et al. (1994) supra).
For biotin-switch analysis, intact mitochondrial pellets (1 mg protein solubilized in extraction buffer) or chromatography column fractions were analyzed in accordance with known methods (Jaffrey & Snyder (2001) supra). Samples were separated in duplicate on non-reducing SDS-PAGE gels; half the gel was stained with COOMASSIE® blue, and the other half blotted and probed with streptavidin-HRP and ECL™ detection (GE biosciences). Blots and stained gels were aligned, and S-nitrosated proteins excised, trypsinized, and identified by peptide mass fingerprinting. Mass spectra (MALDI-TOF) were analyzed using the MASCOT™ algorithm available on the world-wide web at matrixscience.com.

In data set [1] the test system is isolated adult rat cardiomyocytes. The data set can be described thus: Cardiomyocyte model of ischemia-reperfusion injury, cell viability by Trypan blue exclusion. The data set is classed as cell-based. As to the method:
Isolated adult rat cardiomyocytes were subjected to 1 hour ischemia (anoxic, glucose free medium, pH 6.5) followed by 30 minutes reoxygenation (labeled “HR”). Cell viability was assayed by Trypan blue exclusion. […] All data are means±SEM, N>3.
Adult rat cardiomyocytes were prepared by collagenase perfusion according to standard methods (Dai, et al. (2001) supra), yielding ˜4×10^6 cells per heart, >80% rod-shaped and viable. Incubations were in a shaking water bath at 37° C., each utilizing 5×10^5 cells in 5 mL of the KH buffers described below. For the control, cells were incubated for 2 hours in oxygenated KH buffer (95/5 O2/CO2). For ischemia-reperfusion treatment, cells were subjected to 30 minutes in oxygenated KH buffer, 1 hour in “ischemic” KH buffer (95/5 N2/CO2, pH 6.5, no glucose), and 30 minutes in oxygenated KH buffer. For the ischemia-reperfusion injury and test compound group of cells, ischemia-reperfusion injury was carried out as described above with test compound present during the 30 minute equilibration prior to ischemia-reperfusion and absent during ischemia. […] At the end of each protocol, cell viability was assayed (Trypan blue), and mitochondrial function determined (measurement of ΔΨm with the fluorescent probe TMRE, respiration with an O2 electrode, and S-nitrosothiol content by chemiluminescence and biotin-switch.

The test system is the same in data set [2]. The data set can be described thus: Mitochondrial H+ leak in cardiomyocytes (respiration divided by TMRE fluorescence) after ischemia-reperfusion. In kind it is cell-based. The settings on record: doses that protect cardiomyocyte viability. The procedure: Cardiomyocyte respiration rate was measured with an oxygen electrode, and membrane potential with the fluorescent dye TMRE (20 nM) in a fluorimeter. H^+ leak is essentially the amount of work the respiratory chain must do to maintain a given membrane potential, and experimentally is derived by dividing respiration by TMRE fluoresence. […] All data are means±SEM, N>3.
Adult rat cardiomyocytes were prepared by collagenase perfusion according to standard methods (Dai, et al. (2001) supra), yielding ˜4×10^6 cells per heart, >80% rod-shaped and viable. Incubations were in a shaking water bath at 37° C., each utilizing 5×10^5 cells in 5 mL of the KH buffers described below. For the control, cells were incubated for 2 hours in oxygenated KH buffer (95/5 O2/CO2). For ischemia-reperfusion treatment, cells were subjected to 30 minutes in oxygenated KH buffer, 1 hour in “ischemic” KH buffer (95/5 N2/CO2, pH 6.5, no glucose), and 30 minutes in oxygenated KH buffer. […] At the end of each protocol, cell viability was assayed (Trypan blue), and mitochondrial function determined (measurement of ΔΨm with the fluorescent probe TMRE, respiration with an O2 electrode, and S-nitrosothiol content by chemiluminescence and biotin-switch.

In the next data set the test system is perfused rat hearts. The data set can be described thus: Langendorff isolated perfused rat heart model of ischemia-reperfusion injury. The settings on record: 10 μM infused during equilibration; 25 minutes global ischemia, 30 minutes reperfusion; dark. As to the method: Hearts were perfused in constant flow mode, with Krebs-Henseleit (KH) buffer, gassed with 95/5 O2/CO2. Following equilibration (during which S-nitroso-2-mercaptopropylglycine was infused at 10 μM final concentration), global ischemia was imposed for 25 minutes, followed by 30 minutes of reperfusion. Cardiac functional parameters were measured throughout, with a left-ventricular balloon attached to a pressure transducer. Recovery of rate pressure product (RPP, i.e., left ventricular developed pressure multiplied by heart rate) was greater in S-nitroso-2-mercaptopropylglycine treated hearts. Control hearts in these experiments were subject to dark conditions.
Rat hearts were perfused according to methods well-known in the art (Digerness, et al. (2003) J. Thorac. Cardiovasc. Surg. 125:863-871), with Krebs-Henseleit (KH) buffer, gassed with 95/5 O2/CO2. […] Cardiac functional parameters (left ventricular pressure, rate pressure product, oxygen consumption, diastolic stiffness, etc.) were measured throughout, and mitochondria were isolated at the end of the procedure. Several mitochondrial parameters are then determined including respiration, Ca^2+ loading capacity, reactive oxygen species generation, permeability transition pore opening threshold, respiratory complex activities (Brookes, et al. (2002) Methods Enzymol. 359:305-319), and protein S-nitrosation as disclosed herein.

Data set [3] has as its system cell and organ models of ischemia-reperfusion. The conditions noted are these: cited from earlier work.
The conditions of data set [4]: cited from earlier work.

`CC(SN=O)C(=O)NCC(=O)O` (stereo not shown): in the data set on mitochondrial proteins (same concentrations, 10-100 μM), the “S-nitrosation of mitochondrial proteins compared with S-nitrosoglutathione” value is “much greater degree of S-nitrosation of mitochondrial proteins than did S-nitrosoglutathione”. The “protection of cardiomyocyte viability from ischemia-reperfusion injury” value in data set [1] (10 μM or 20 μM, 1 hour ischemia, 30 minutes reoxygenation) was “dose-dependent and significant protection”. Besides, the “protection of cardiomyocyte viability compared with ischemic preconditioning (IPC)” value in data set [1] (higher dose, 20 μM) is reported as “more effective than IPC”. Moreover, in data set [2], the “effect on increase in mitochondrial H+ leak induced by ischemia-reperfusion” value is “prevent large increases in H^+ leak; also recorded: protect against the large increase in proton leak”. The “recovery of rate pressure product (RPP) after ischemia-reperfusion versus control hearts” value in the data set on perfused rat hearts is recorded as “greater”.
Consider `CC(S)C(=O)NCC(=O)O` (stereo not shown) [2-mercaptopropionylglycine, 2-Mercaptopropionylglycine], for which the “concentrations required to elicit protection” value in data set [3] was 0.3 to 1.0 mM. For the same compound, in data set [4] (in vivo), the bioavailability entry is “bioavailable”. Further, in data set [4] (radioactive tracer, whole animals), the “cellular and mitochondrial distribution” value was “readily enters cells and accumulates in mitochondria”.
Turning to `NCCN(CCN)/[N+]([O-])=N/O` [DETA-NONOate], the “S-nitrosation of entire mitochondrial protein extract, comparison of NO donors” value in the data set on mitochondrial proteins is on record as “S-nitrosoglutathione resulted in far more S-nitrosation than DETA-NONOate or ONOO^−”.
Same read-out and setting: next, `O=NOO` [ONOO^−, peroxynitrite]: “S-nitrosoglutathione resulted in far more S-nitrosation than DETA-NONOate or ONOO^−”.
